# Laboratory results as given in US11434246B2, “EP4 antagonists” (Eisai R&D Management Co., Ltd., priority 2015, dated 2022).
# Target: EP4 (Homo sapiens, UniProt P35408)
# Assay: EP4 Antagonism by CRE-PLAP Reporter Assay (SE302 cells, PGE2-stimulated)
# Format: cell-based
# Set-up: HEK293 cells express endogenous EP4; endogenous in cells; host or cells: SE302 (HEK293 clone with CRE-PLAP reporter)
# Details: SE302 (HEK293) cells, 3 ng/mL PGE2, overnight; single or multiple assay average values
# Excerpt: PGE2 and [^3H]-labelled PGE2 were purchased from Cayman Chemical (Ann Arbor, Mich.) and Perkin Elmer (Waltham, Mass.), respectively. Mouse breast 4T1 cells (CRL-2539) were obtained from American Tissue Culture Collection. SE302 cell line is a clone of the HEK293 cells containing cAMP response element (CRE) promoter that when activated drives secretion of placental-like alkaline phosphatase (PLAP). HEK293 cells express endogenous EP4 and show induction of PLAP in response to PGE2 and EP4 agonists, but not EP1, 2 or 3 agonists (Chen Q, Muramoto K, Masaaki N, Ding Y, Yang H, Mackey M, Li W, Inoue Y, Ackermann K, Shrota H, Matsumoto I, Spyvee M, Schiller S, Sumida T, Gusovsky F, and Lamphier M. A novel antagonist of the prostaglandin E2 EP4 receptor inhibits Th1 differentiation and Th17 expansion and is orally active in arthritis models. British J Pharmacol, 2010, 160: 292-310). BalB/C female mice at 7-8 week age were purchased from Jackson Laboratory (Bar Harbor, Me.). Mice were maintained under specific pathogen-free conditions.
# EP4 Antagonism by CRE-PLAP Reporter Assay: SE302 cells were maintained in DMEM/F12 (50:50) (MediaTech) supplemented with 10% FBS (Tissue Culture Biologicals) plus penicillin/streptomycin. When used for assays, cells were plated in a 96-well plate at 2×10^4 cells/100 μL/well in serum-free assay medium (DMEM/F12 supplemented with 0.1% BSA plus penicillin/streptomycin) and incubated for 4-6 h. Cells were then stimulated with 3 ng/mL of PGE2 in the presence or absence of various concentrations of test compound overnight, and PLAP activity was measured by mixing 15 μL of culture supernatants with 75 μL of Lumi-phos (Lumigen, Inc.) and 60 μL of assay buffer containing 8 mmol/L MgSO4 in 0.1 mol/L carbonate-bicarbonate buffer pH11 in a new 96-well black plate and incubated for 2 h at room temperature. The intensity of luminescence, which reflected the PLAP activity in the supernatant, was quantified with an Envision 2101 Multilabel Reader. Values obtained from DMSO treated samples in the presence of PGE2 were defined as 100% of control, whereas values obtained from DMSO treated samples in the absence of PGE2 were defined as 0% of control. % of control for compound treated samples was calculated as follows: (actual reading−0% of control)/(100% of control−0% of control)×100. IC50 value for each individual experiment was calculated using GraphPad Prism 6.02 (Lake Forest, Calif.) with % of control values.
# Compounds of the present invention were assayed according to the methods as described above, and IC50 values, which may be single assay values or multiple assay average values, are summarized in Table 1. Compounds marked “ABS” show absolute stereochemistry.
# Chain of EP4 (P35408 whole entry): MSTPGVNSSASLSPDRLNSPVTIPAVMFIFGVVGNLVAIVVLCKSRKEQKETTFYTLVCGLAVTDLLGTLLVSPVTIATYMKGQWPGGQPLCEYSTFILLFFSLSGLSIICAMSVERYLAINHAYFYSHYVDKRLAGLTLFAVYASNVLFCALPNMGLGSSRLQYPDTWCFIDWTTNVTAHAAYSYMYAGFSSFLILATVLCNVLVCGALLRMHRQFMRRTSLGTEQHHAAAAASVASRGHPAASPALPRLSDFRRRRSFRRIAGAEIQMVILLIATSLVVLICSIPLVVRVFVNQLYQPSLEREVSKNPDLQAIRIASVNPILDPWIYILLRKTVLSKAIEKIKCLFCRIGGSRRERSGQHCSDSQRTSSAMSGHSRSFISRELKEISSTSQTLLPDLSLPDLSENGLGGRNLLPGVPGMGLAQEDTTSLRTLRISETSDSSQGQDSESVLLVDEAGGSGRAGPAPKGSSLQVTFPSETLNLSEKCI
row,SMILES,IC50
1,"C[C@H](NC(=O)c1c(C(F)(F)F)nn2c1N(Cc1ccc(C(F)(F)F)cc1)CCC2)c1ccc(C(=O)O)cc1 [Compound 45, (S)-4-(1-(2-(trifluoromethyl)-4-(4-(trifluoromethyl)benzyl)-4,5,6,7-tetrahydropyrazolo[1,5-a]pyrimidine-3-carboxamido)ethyl)benzoic Acid]",1.15 nM
2,"C[C@H](NC(=O)c1c(C(F)(F)F)nn2c1N(Cc1ccc(C(F)(F)F)cc1)CC2)c1ccc(CC(=O)O)cc1 [Compound 27, (S)-2-(4-(1-(6-(trifluoromethyl)-1-(4-(trifluoromethyl)benzyl)-2,3-dihydro-1H-imidazo[1,2-b]pyrazole-7-carboxamido)ethyl)phenyl)acetic Acid]",7.08 nM
3,"Cc1cccc(CN2CCn3nc(C(F)(F)F)c(C(=O)N[C@@H](C)c4ccc(C(=O)O)cc4)c32)c1 [Compound 18, (S)-4-(1-(1-(3-methylbenzyl)-6-(trifluoromethyl)-2,3-dihydro-1H-imidazo[1,2-b]pyrazole-7-carboxamido)ethyl)benzoic Acid]",0.64 nM
4,"C[C@H](NC(=O)c1c(C(F)(F)F)nn2c1N(Cc1cccc(C(F)(F)F)c1)CC2)c1ccc(C(=O)NC#N)cc1 [Compound 52, (S)—N-(1-(4-(cyanocarbamoyl)phenyl)ethyl)-6-(trifluoromethyl)-1-(3-(trifluoromethyl)benzyl)-2,3-dihydro-1H-imidazo[1,2-b]pyrazole-7-carboxamide]",0.07 nM
5,"Cc1nn2c(c1C(=O)NCc1ccc(C(=O)O)cc1)N(Cc1ccc(Cl)cc1)CC2 [Compound 33, 4-((1-(4-chlorobenzyl)-6-methyl-2,3-dihydro-1H-imidazo[1,2-b]pyrazole-7-carboxamido)methyl)benzoic Acid]",27.6 nM
6,"C[C@H](NC(=O)c1c(C(F)(F)F)nn2c1N(Cc1ccc(Cl)cc1)CCC2)c1ccc(C(=O)O)cc1 [Compound 41, (S)-4-(1-(4-(4-chlorobenzyl)-2-(trifluoromethyl)-4,5,6,7-tetrahydropyrazolo[1,5-a]pyrimidine-3-carboxamido)ethyl)benzoic Acid]",1.53 nM
7,"C[C@H](NC(=O)c1c(C(F)(F)F)nn2c1N(Cc1cc(Cl)cc(Cl)c1)CC2)c1ccc(C(=O)O)cc1 [Compound 7, (S)-4-(1-(1-(3,5-dichlorobenzyl)-6-(trifluoromethyl)-2,3-dihydro-1H-imidazo[1,2-b]pyrazole-7-carboxamido)ethyl)benzoic Acid]",0.32 nM
8,"C[C@H](NC(=O)c1c(C(F)(F)F)nn2c1N(Cc1cccc(OC(F)(F)F)c1)CC2)c1ccc(C(=O)O)cc1 [Compound 11, (S)-4-(1-(1-(3-(trifluoromethoxy)benzyl)-6-(trifluoromethyl)-2,3-dihydro-1H-imidazo[1,2-b]pyrazole-7-carboxamido)ethyl)benzoic Acid]",0.41 nM
9,"C[C@H](NC(=O)c1c(C(F)(F)F)nn2c1N(Cc1cccc(C(F)(F)F)c1)CC2)c1ccc(CC(=O)O)cc1 [Compound 26, (S)-2-(4-(1-(6-(trifluoromethyl)-1-(3-(trifluoromethyl)benzyl)-2,3-dihydro-1H-imidazo[1,2-b]pyrazole-7-carboxamido)ethyl)phenyl)acetic Acid]",3.54 nM
10,"Cc1ccc(CN2CCn3nc(C(F)(F)F)c(C(=O)N[C@@H](C)c4ccc(C(=O)O)cc4)c32)cc1 [Compound 17, (S)-4-(1-(1-(4-methylbenzyl)-6-(trifluoromethyl)-2,3-dihydro-1H-imidazo[1,2-b]pyrazole-7-carboxamido)ethyl)benzoic Acid]",1.65 nM
11,"C[C@H](NC(=O)c1c(C(F)(F)F)nn2c1N(Cc1ccc(C(F)(F)F)cc1)CC2)c1ccc(C(=O)O)cc1F [Compound 22, (S)-3-fluoro-4-(1-(6-(trifluoromethyl)-1-(4-(trifluoromethyl)benzyl)-2,3-dihydro-1H-imidazo[1,2-b]pyrazole-7-carboxamido)ethyl)benzoic Acid]",1.91 nM
12,"CCc1ccc(CN2CCn3nc(C(F)(F)F)c(C(=O)N[C@@H](C)c4ccc(C(=O)O)cc4)c32)cc1 [Compound 20, (S)-4-(1-(1-(4-ethylbenzyl)-6-(trifluoromethyl)-2,3-dihydro-1H-imidazo[1,2-b]pyrazole-7-carboxamido)ethyl)benzoic Acid]",2.23 nM

# Next, values leading:
row,IC50,SMILES
1,0.12 nM,"C[C@H](NC(=O)c1c(C(F)(F)F)nn2c1N(Cc1cc(Br)cc(C(F)(F)F)c1)CC2)c1ccc(C(=O)O)cc1 [Compound 85, (S)-4-(1-(1-(3-bromo-5-(trifluoromethyl)benzyl)-6-(trifluoromethyl)-2,3-dihydro-1H-imidazo[1,2-b]pyrazole-7-carboxamido)ethyl)benzoic Acid]"
2,32.9 nM,"C[C@H](NC(=O)c1c(C(F)(F)F)nn2c1N(Cc1cccc(C(F)(F)F)c1)CC2)c1ccc(C(=O)NC2(C#N)CC2)cc1 [Compound 101, (S)—N-(1-(4-((1-Cyanocyclopropyl)carbamoyl)phenyl)ethyl)-6-(trifluoromethyl)-1-(3-(trifluoromethyl)benzyl)-2,3-dihydro-1H-imidazo[1,2-b]pyrazole-7-carboxamide]"
3,5.43 nM,"C=Cc1nn2c(c1C(=O)N[C@@H](C)c1ccc(C(=O)O)cc1)N(Cc1cccc(C(F)(F)F)c1)CC2 [Compound 92, (S)-4-(1-(1-(3-(Trifluoromethyl)benzyl)-6-vinyl-2,3-dihydro-1H-imidazo[1,2-b]pyrazole-7-carboxamido)ethyl)benzoic Acid]"
4,0.84 nM,"C[C@H](NC(=O)c1c(C(F)(F)F)nn2c1N(Cc1ccccc1)CC2)c1ccc(C(=O)O)cc1 [Compound 70, (S)-4-(1-(1-benzyl-6-(trifluoromethyl)-2,3-dihydro-1H-imidazo[1,2-b]pyrazole-7-carboxamido)ethyl)benzoic acid]"
5,1.48 nM,"C[C@H](NC(=O)c1c(C(F)(F)F)nn2c1N(Cc1ccc(O)cc1)CC2)c1ccc(C(=O)O)cc1 [Compound 86, (S)-4-(1-(1-(4-hydroxybenzyl)-6-(trifluoromethyl)-2,3-dihydro-1H-imidazo[1,2-b]pyrazole-7-carboxamido)ethyl)benzoic Acid]"
6,21.6 nM,"C[C@H](NC(=O)c1c(C(F)(F)F)nn2c1N(Cc1cccc(OC(F)(F)F)c1)CC2)c1ccc(C(=O)NS(=O)(=O)c2ccccc2)cc1 [Compound 54, (S)—N-(1-(4-((phenylsulfonyl)carbamoyl)phenyl)ethyl)-1-(3-(trifluoromethoxy)benzyl)-6-(trifluoromethyl)-2,3-dihydro-1H-imidazo[1,2-b]pyrazole-7-carboxamide]"
7,0.26 nM,"C[C@H](NC(=O)c1c(C(F)(F)F)nn2c1N(Cc1cccc(C(F)(F)F)c1)C[C@H]2CF)c1ccc(C(=O)O)cc1 [Compound 81, 4-((S)-1-((S)-3-(fluoromethyl)-6-(trifluoromethyl)-1-(3-(trifluoromethyl)benzyl)-2,3-dihydro-1H-imidazo[1,2-b]pyrazole-7-carboxamido)ethyl)benzoic acid]"
8,18.9 nM,"C=C1CCC(CN2CCn3nc(C(F)(F)F)c(C(=O)N[C@@H](C)c4ccc(C(=O)O)cc4)c32)CC1 [Compound 79, (S)-4-(1-(1-((4-methylenecyclohexyl)methyl)-6-(trifluoromethyl)-2,3-dihydro-1H-imidazo[1,2-b]pyrazole-7-carboxamido)ethyl)benzoic acid]"
